# Data taken from ChEMBL document CHEMBL4699505, “Lycosquarrines A-R, Lycopodium Alkaloids from Phlegmariurus squarrosus” (J Nat Prod, 2020).
# Molecular target: T1, Acetylcholinesterase (Bos taurus) (UniProt P23795)
# T1 sequence (whole entry): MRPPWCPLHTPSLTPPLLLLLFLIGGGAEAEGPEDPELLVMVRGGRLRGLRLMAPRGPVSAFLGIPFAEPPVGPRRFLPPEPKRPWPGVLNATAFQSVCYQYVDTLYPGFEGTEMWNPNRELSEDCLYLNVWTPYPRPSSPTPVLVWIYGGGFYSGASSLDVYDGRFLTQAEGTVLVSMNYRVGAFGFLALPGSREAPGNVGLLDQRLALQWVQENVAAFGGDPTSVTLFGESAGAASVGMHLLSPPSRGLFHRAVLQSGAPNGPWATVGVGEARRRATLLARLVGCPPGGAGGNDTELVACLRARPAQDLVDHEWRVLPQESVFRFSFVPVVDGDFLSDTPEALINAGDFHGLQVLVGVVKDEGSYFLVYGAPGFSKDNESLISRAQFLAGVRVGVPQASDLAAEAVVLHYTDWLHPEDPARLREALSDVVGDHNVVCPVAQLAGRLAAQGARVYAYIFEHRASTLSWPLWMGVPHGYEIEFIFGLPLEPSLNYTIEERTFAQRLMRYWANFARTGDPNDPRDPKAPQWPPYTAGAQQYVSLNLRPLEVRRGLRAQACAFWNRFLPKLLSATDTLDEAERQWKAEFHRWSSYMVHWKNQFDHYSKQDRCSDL
# Assay: Inhibition of bovine erythrocytes AChE using acetylthiocholine iodide as substrate at 100 uM incubated for 15 to 20 mins by Ellman's methods relative to control
# Format: tissue-based
# Conditions: Erythrocyte, time min 15-20
row,Structure (SMILES),inhibition [%]
1,C[C@H]1C[C@@]23[C@H]4CCCN2CC[C@H]2O[C@]23[C@H](C[C@@H]4OC(=O)CCc2ccc(O)cc2)[C@@H]1O,< 50
2,C[C@@H]1C[C@@]2(O)C[C@H](OC(=O)CCc3ccc(O)cc3)[C@@H]3CCCN4CC[C@H]5O[C@@]52[C@]34C1,< 50
3,C/C=C1\[C@@H]2Cc3[nH]c(=O)ccc3[C@@]1(N)C[C@H](CO)C2,< 50
4,C[C@H]1C[C@]23C4=CCCN2CCC[C@@H]3[C@H](O)[C@@H](O)[C@@H]4[C@@H]1O,< 50
5,C[C@@H]1C[C@H]2C[C@@H]3O[C@]24[C@H](O)CCN2CCC[C@@H]3[C@]24C1,< 50
6,C[C@H]1C[C@]23C4=CCCN2CCC[C@H]3[C@@H](O)C[C@@H]4[C@@H]1O,< 50
7,C[C@H]1C[C@@]23NCCC[C@@H]2[C@H](Cc2ncccc23)[C@@H]1O,< 50
8,C[C@@H]1C[C@H]2Cc3[nH]c(=O)ccc3[C@@](N)(C1)/C2=C/CO,< 50
9,C[C@@H]1C[C@H]2Cc3[nH]c(=O)ccc3[C@]3(C1)NCC[C@@H](O)[C@H]23,< 50
10,C[C@H]1C=C2N3CCC[C@@H]4C(=O)C[C@H]([C@@H]1O)[C@]24CCC3,< 50
11,O=c1ccc2c([nH]1)C[C@@H]1C[C@@H](CO)C[C@]23NCCC[C@H]13,< 50
12,O=C1C[C@@H]2C=C(CO)C[C@@]34[C@@H]1CCCN3CCC[C@H]24,< 50
13,C[C@@H]1C[C@H]2C[C@H](OC(=O)CCc3ccc(O)cc3)[C@@H]3CCCN4CC[C@H]5O[C@]25[C@]34C1,< 50
14,C[C@@H]1C[C@@]2(O)C[C@@H]3O[C@H]4CC[N+]5([O-])CCC[C@@H]3[C@@]5(C1)[C@]42O (stereo partly specified),< 50
15,CO[C@@]12C[C@@H]3C[C@@H](C)C[C@@]4(O1)N1CCC[C@@]2(O)[C@]34CCC1,< 50
16,C[C@H]1CC2=[N+]([O-])CCC[C@]23c2cccnc2C[C@@H]3[C@@H]1O,< 50
17,C[C@H]1C[C@@]23NCCC[C@@H]2[C@](O)(Cc2ncccc23)[C@H]1O,< 50
18,CC(=O)NC1=C2CCC[N+]3([O-])CCC[C@]4(O)[C@H](C1)C[C@@H](C)C[C@]243 (stereo partly specified),< 50

# Molecular target: T2, Acetylcholinesterase (Bos taurus, UniProt P23795)
# T2 sequence (P23795 whole entry): T1 sequence (whole entry)
# Assay: Inhibition of bovine erythrocytes AChE using acetylthiocholine iodide as substrate incubated for 15 to 20 mins by Ellman's methods
# Parameters: species or system Erythrocyte
# Conditions: not given
row,Structure (SMILES),IC50 [µM]
1,C/C=C1\[C@H]2C=C(C)C[C@]1(N)c1ccc(=O)[nH]c1C2 [HUPERZINE A],0.1
2,C/C=C1\[C@H]2C=C(CO)C[C@]1(N)c1ccc(=O)[nH]c1C2,2.1
3,C/C=C1\[C@H]2C=C(C(=O)OC)C[C@]1(N)c1ccc(=O)[nH]c1C2,4.2
